{"source": "patent US20190069576A1", "about": "“Solid Form Nutrient Compositions” (Railsplitter Feed Technology, Inc., priority 2016, published 2019)", "test_system": "infant pigs", "assay": "Hemoglobin measurement of pigs treated with granular materials or iron dextran injections", "type": "in vivo, pig", "method": "In Example 6, four litters of pigs were provided granular product (sample numbers 272 and 280). These litters were offered these granular products ad litum from birth to 21 days of birth. Two litters were not offered granular material, but were instead injected with iron dextran on day 3 after birth with 1 cc of 200 mg of iron dextran. Two other litters, also not offered granular material, were injected twice, once on day 3, and once on day 10 after birth. Each injection was a 1 cc injection of 200 mg of iron dextran.\nThe National Research Council in the Nutrient Requirement of Swine publication recommends that levels of iron dextran providing more than 200 mg per pig in one injection be avoided. Many producers provide a second injection to minimize the deficiency which doubles the cost of preventing anemia in young pigs, and increases the probability of spreading pathogens with needles.\nHemoglobin analysis is an excellent way to quantitate the adequacy of iron for the pig but the treatment differences are obvious by just viewing the litters.\nA striking difference between healthy hemoglobin adequate pigs and anemic pigs is the color of the skin. This is most obvious in white pigs, and most pigs in US have some white color in their breed lineage. Pigs with hemoglobin values above 10 gm per 100 ml. have extremely bright, pink skin, while anemic pigs have very pale almost white color of the skin.", "key": {"[1]": {"settings": "1 injection, day 3, 1 cc of 200 mg, first litter (12 pigs)"}, "[2]": {"settings": "1 injection, second litter (10 pigs)"}, "[3]": {"settings": "2 injections, day 3 and day 10, each 1 cc of 200 mg, first litter (7 pigs)"}, "[4]": {"settings": "2 injections, second litter (11 pigs)"}}, "data": [{"substance": "iron dextran", "values": [{"measurement": "Pigs <10 gm % (hemoglobin)", "setting": "[1]", "value": 10}, {"measurement": "Pigs >10 gm % (hemoglobin)", "setting": "[1]", "value": 2}, {"measurement": "Pigs <10 gm % (hemoglobin)", "setting": "[2]", "value": 4}, {"measurement": "Pigs >10 gm % (hemoglobin)", "setting": "[2]", "value": 6}, {"measurement": "% with adequate Hemoglobin", "setting": "1 injection, total of 22 pigs", "value": 36, "unit": "%"}, {"measurement": "Pigs <10 gm % (hemoglobin)", "setting": "1 injection, total of 22 pigs", "value": 14}, {"measurement": "Pigs >10 gm % (hemoglobin)", "setting": "1 injection, total of 22 pigs", "value": 8}, {"measurement": "Pigs <10 gm % (hemoglobin)", "setting": "[3]", "value": 2}, {"measurement": "Pigs >10 gm % (hemoglobin)", "setting": "[3]", "value": 5}, {"measurement": "Pigs <10 gm % (hemoglobin)", "setting": "[4]", "value": 2}, {"measurement": "Pigs >10 gm % (hemoglobin)", "setting": "[4]", "value": 9}, {"measurement": "% with adequate Hemoglobin", "setting": "2 injections, total of 18 pigs", "value": 77, "unit": "%"}, {"measurement": "Pigs <10 gm % (hemoglobin)", "setting": "2 injections, total of 18 pigs", "value": 4}, {"measurement": "Pigs >10 gm % (hemoglobin)", "setting": "2 injections, total of 18 pigs", "value": 14}]}]}
